Measured values as given in US20160184439A1, “ORALLY DISINTEGRATING FILM PREPARATION CONTAINING DONEPEZIL OR PHARMACEUTICALLY ACCEPTABLE SALT THEREOF, AND PREPARATION METHOD THEREFOR” (SEOUL PHARMA. CO., LTD., priority 2013, published 2016).

Assay: Characteristic feature of the main excipients
Conditions: effect of excipient in donepezil film
Excerpt: The characteristic feature of the main excipients of the present invention—In order to achieve the object of the above formulation research, it can be seen that the main excipients of the below Table 3 are essential elements.

Structure (SMILES)	Occurrence of the impurity
Cc1cc(C(C)(C)C)c(O)c(C(C)(C)C)c1 [Dibuthylhydroxytoluene]	Inhibition
CC(O)COC[C@H]1O[C@@H]2O[C@H]3[C@H](O)[C@@H](O)[C@@H](O[C@H]4[C@H](O)[C@@H](O)[C@@H](O[C@H]5[C@H](O)[C@@H](O)[C@@H](O[C@H]6[C@H](O)[C@@H](O)[C@@H](O[C@H]7[C@H](O)[C@@H](O)[C@@H](O[C@H]8[C@H](O)[C@@H](O)[C@@H](O[C@H]1[C@H](O)[C@H]2O)O[C@@H]8COCC(C)O)O[C@@H]7COCC(C)O)O[C@@H]6COCC(C)O)O[C@@H]5COCC(C)O)O[C@@H]4COCC(C)O)O[C@@H]3COCC(C)O (some centres unmarked) [Hydroxypropylbetadex]	Inhibition
